According to ChEMBL document CHEMBL3301472, “MMV Malaria Box HIV and cytotoxicity screening”:

Key:
[1] = MMV: MTT Cytotoxicity Assay Day 7 pi of Assay #6 (compound washed out Day 1 pi), U87-CD4-CCR5 cells, % cell death @ 5mM compound; format: toxicity, cell-based; conditions: human, u87-cd4-ccr5, 5000 µM
[2] = MMV: MTT Cytotoxicity Assay Day 3 pi, U87-CD4-CXCR4 cells, % cell death @ 5mM compound; format: toxicity, cell-based; conditions: human, u87-cd4-cxcr4, 5000 µM
[3] = MMV: MTT Cytotoxicity Assay Day 7 pi of Assay #11 (NO washout), U87-CD4-CXCR4 cells, % cell death @ 5mM compound; format: toxicity, cell-based; conditions: human, u87-cd4-cxcr4, 5000 µM
[4] = test system: Human immunodeficiency virus 1; experiment: MMV: HIV CXCR4-tropic env NL4-3 pseudovirus assay produces luciferase signal in lieu of replicating viral particles Day 3 pi, U87-CD4-CXCR4, % inhibition at 5 mM compound; format: functional; design: dose or concentration left out as unconfirmed; conditions: Human immunodeficiency virus 1, NL4-3, U87.CD4.CXCR4, 72 h
[5] = MMV: MTT Cytotoxicity Assay Day 3 pi, U87-CD4-CCR5 cells, % cell death @ 5mM compound; format: toxicity, cell-based; conditions: human, u87-cd4-ccr5, 5000 µM
[6] = MMV: MTT Cytotoxicity Assay Day 7 pi of Assay #10 (NO washout), U87-CD4-CCR5 cells, % cell death @ 5mM compound; format: toxicity, cell-based; conditions: human, u87-cd4-ccr5, 5000 µM
[7] = MMV: MTT Cytotoxicity Assay Day 7 pi of Assay #7 (compound washed out Day 1 pi), U87-CD4-CXCR4 cells, % cell death @ 5mM compound; format: toxicity, cell-based; conditions: human, u87-cd4-cxcr4, 5000 µM
[8] = test system: Human immunodeficiency virus 1; experiment: MMV: HIV JRFL CCR5-tropic replication-competent virus, virus & compound washed out Day 1 pi, P24 ELISA Day 7 pi, U87-CD4-CCR5, % inhibition at 5 mM compound; format: functional; design: dose or concentration left out as unconfirmed; conditions: Human immunodeficiency virus 1, JR-FL

## CCCCCC(=O)N1c2ccccc2N=C2CC(c3ccc(OC)c(OC)c3)CC(O)=C2C1c1ccc(C(F)(F)F)cc1 (stereo unspecified)
[1]
  % Cell Death: 5
[2]
  % Cell Death: 14
[3]
  % Cell Death: -20
[4]
  inhibition: 2%
[5]
  % Cell Death: 11
[6]
  % Cell Death: 16
[7]
  % Cell Death: -21

## O=C(Nc1ccc(Br)cc1)Nc1cccc(Cl)c1
[1]
  % Cell Death: 8
[2]
  % Cell Death: 22
[3]
  % Cell Death: 64
[4]
  inhibition: 9%
[5]
  % Cell Death: 9
[6]
  % Cell Death: 44
[7]
  % Cell Death: -4

## CCn1c(CN2CCN(Cc3ccccc3)CC2)nc2cc(NC(=O)c3cccs3)ccc21
[1]
  % Cell Death: 12
[2]
  % Cell Death: 21
[3]
  % Cell Death: -27
[4]
  inhibition: 1%
[5]
  % Cell Death: 21
[6]
  % Cell Death: 10
[7]
  % Cell Death: -27

## Cc1ccnc(NC(c2cccc(OCc3ccccc3)c2)c2ccc3cccnc3c2O)c1 (stereo unspecified)
[1]
  % Cell Death: 49
[2]
  % Cell Death: -12
[3]
  % Cell Death: 27
[4]
  inhibition: 1%
[5]
  % Cell Death: 19
[6]
  % Cell Death: -16
[7]
  % Cell Death: 37

## Cn1c(C(=O)c2cccc3ccccc23)nc2ccccc21
[1]
  % Cell Death: -37
[2]
  % Cell Death: 32
[3]
  % Cell Death: -77
[4]
  inhibition: 9%
[5]
  % Cell Death: -32
[6]
  % Cell Death: 2
[7]
  % Cell Death: -12

## CCN(CC)CCCNc1ccnc2cc3ccccc3cc12
[1]
  % Cell Death: 51
[2]
  % Cell Death: 35
[3]
  % Cell Death: 85
[4]
  inhibition: 5%
[5]
  % Cell Death: 41
[6]
  % Cell Death: 60
[7]
  % Cell Death: 55

## COc1ccc(C2NCCc3c2[nH]c2ccccc32)cc1CN1CCN(c2ccc(F)cc2)CC1.Cl (stereo unspecified)
[1]
  % Cell Death: 24
[2]
  % Cell Death: 35
[3]
  % Cell Death: -62
[4]
  inhibition: 3%
[5]
  % Cell Death: 27
[6]
  % Cell Death: 14
[7]
  % Cell Death: -8

## COc1ccc2nc(C)cc(Nc3cccc(O)c3)c2c1.Cl
[1]
  % Cell Death: 10
[2]
  % Cell Death: 39
[3]
  % Cell Death: 76
[4]
  inhibition: 7%
[5]
  % Cell Death: 16
[6]
  % Cell Death: 43
[7]
  % Cell Death: 0

## O=C(Cc1ccccc1)NC(c1ccc(Cl)cc1)c1c(O)ccc2ccccc12 (stereo unspecified)
[1]
  % Cell Death: 18
[2]
  % Cell Death: 23
[3]
  % Cell Death: -16
[4]
  inhibition: 3%
[5]
  % Cell Death: 11
[6]
  % Cell Death: 2
[7]
  % Cell Death: -8

## COc1ccc(Nc2nc(N/N=C/c3ccc(O)cc3)nc(Nc3ccc([N+](=O)[O-])cc3)n2)cc1
[1]
  % Cell Death: 33
[2]
  % Cell Death: 23
[3]
  % Cell Death: 0
[4]
  inhibition: 7%
[5]
  % Cell Death: 11
[6]
  % Cell Death: 11
[7]
  % Cell Death: 50

## Br.CCn1c2c(c(=N)c3c1CCC3)CCCC2
[1]
  % Cell Death: -8
[2]
  % Cell Death: 30
[3]
  % Cell Death: -11
[4]
  inhibition: -2%
[5]
  % Cell Death: -56
[6]
  % Cell Death: -14
[7]
  % Cell Death: -30

## CCCCc1c(CCC)c(=N)c2ccccc2n1C.I
[1]
  % Cell Death: 27
[2]
  % Cell Death: 21
[3]
  % Cell Death: -12
[4]
  inhibition: 7%
[5]
  % Cell Death: -13
[6]
  % Cell Death: -4
[7]
  % Cell Death: 55

## COc1ccc(C(C)=O)cc1N1C(=O)C2C(C1=O)C1(c3ccccc3)C(=O)C2(c2ccccc2)C(c2ccc(C)cc2)=C1c1ccc(C)cc1 (stereo unspecified)
[1]
  % Cell Death: 2
[2]
  % Cell Death: 39
[3]
  % Cell Death: 5
[4]
  inhibition: 3%
[5]
  % Cell Death: 28
[6]
  % Cell Death: 16
[7]
  % Cell Death: 14

## O=C(NCc1ccco1)C1CCN(S(=O)(=O)c2ccc(Cl)cc2)CC1
[1]
  % Cell Death: 37
[2]
  % Cell Death: 12
[3]
  % Cell Death: 23
[5]
  % Cell Death: 22
[6]
  % Cell Death: 18
[7]
  % Cell Death: -15
[8]
  inhibition: 1%

## O=C(NCC(c1ccsc1)N1CCCCCC1)c1ccc(C(F)(F)F)cc1 (stereo unspecified)
[1]
  % Cell Death: 12
[2]
  % Cell Death: 23
[3]
  % Cell Death: 12
[5]
  % Cell Death: 10
[6]
  % Cell Death: 19
[7]
  % Cell Death: -26
[8]
  inhibition: 1%

## COc1cc2cc(C(=O)Nc3ccccc3)c(N)nc2cc1OC
[1]
  % Cell Death: 0
[2]
  % Cell Death: 43
[3]
  % Cell Death: 106
[5]
  % Cell Death: 75
[6]
  % Cell Death: 95
[7]
  % Cell Death: 51
[8]
  inhibition: 9%

## CN(C)c1ccc(-c2nc3cc(N)ccc3[nH]2)cc1
[1]
  % Cell Death: -1
[2]
  % Cell Death: 19
[3]
  % Cell Death: -20
[5]
  % Cell Death: 22
[6]
  % Cell Death: 2
[7]
  % Cell Death: -21
[8]
  inhibition: 0%

## CCn1c(SCC(=O)Nc2cc(C(F)(F)F)ccc2Cl)nc2ccccc2c1=O
[1]
  % Cell Death: 23
[2]
  % Cell Death: 81
[3]
  % Cell Death: 17
[5]
  % Cell Death: -1
[6]
  % Cell Death: 19
[7]
  % Cell Death: -27
[8]
  inhibition: 8%

## CCCOCc1cc(CN2CCN(c3cccc(Cl)c3)CC2)c(O)c2ncccc12
[1]
  % Cell Death: -8
[2]
  % Cell Death: 31
[3]
  % Cell Death: -57
[5]
  % Cell Death: 24
[6]
  % Cell Death: 15
[7]
  % Cell Death: -7
[8]
  inhibition: 9%

## O=c1nc(C=Cc2ccc(Cl)cc2)oc2ccccc12
[1]
  % Cell Death: 7
[2]
  % Cell Death: 20
[3]
  % Cell Death: -47
[5]
  % Cell Death: 50
[6]
  % Cell Death: 26
[7]
  % Cell Death: -17
[8]
  inhibition: 1%

## CCC(=O)Nc1nnc(Cc2ccc(OC)c(OC)c2)s1
[1]
  % Cell Death: -1
[2]
  % Cell Death: 21
[3]
  % Cell Death: -23
[5]
  % Cell Death: 17
[6]
  % Cell Death: 9
[7]
  % Cell Death: -14
[8]
  inhibition: -1%

## COCCNC(=O)c1ccc(OC2CCN(Cc3ccc(F)c(F)c3)CC2)c(Cl)c1
[1]
  % Cell Death: 20
[2]
  % Cell Death: 4
[3]
  % Cell Death: -22
[5]
  % Cell Death: 31
[6]
  % Cell Death: 15
[7]
  % Cell Death: -5
[8]
  inhibition: 9%

## CN(C)c1ccc(N2C(N)=NC(N)=NC2(C)C)cc1
[1]
  % Cell Death: 14
[2]
  % Cell Death: 21
[3]
  % Cell Death: 21
[5]
  % Cell Death: -12
[6]
  % Cell Death: 4
[7]
  % Cell Death: 12
[8]
  inhibition: 1%

## O=C(Nc1cccc(C2=NCCN2)c1)Nc1cccc(C2=NCCN2)c1 [IMIDOCARB]
[1]
  % Cell Death: -6
[2]
  % Cell Death: 63
[3]
  % Cell Death: 65
[5]
  % Cell Death: 31
[6]
  % Cell Death: 63
[7]
  % Cell Death: 15
[8]
  inhibition: 7%

## Clc1ccc2c(N3CCCC3)ccnc2c1
[1]
  % Cell Death: 3
[2]
  % Cell Death: 21
[3]
  % Cell Death: -37
[5]
  % Cell Death: 8
[6]
  % Cell Death: 16
[7]
  % Cell Death: 1
[8]
  inhibition: 5%

## COc1ccc(N2CCN(C(CNC(=O)C3CCCCC3)c3ccc4c(c3)OCO4)CC2)cc1 (stereo unspecified)
[1]
  % Cell Death: 25
[2]
  % Cell Death: 63
[3]
  % Cell Death: 71
[5]
  % Cell Death: 17
[6]
  % Cell Death: 38
[7]
  % Cell Death: 6
[8]
  inhibition: 10%

## Cc1ccc(-c2cc(C(=O)Nc3ccc(S(=O)(=O)N4CCCCC4)cc3)[nH]n2)c(O)c1
[1]
  % Cell Death: 18
[2]
  % Cell Death: 11
[3]
  % Cell Death: 16
[5]
  % Cell Death: -5
[6]
  % Cell Death: 10
[7]
  % Cell Death: -29
[8]
  inhibition: 6%

## Cc1ccc(CSCc2ccc(C(=O)NC3CC3)o2)cc1
[1]
  % Cell Death: 18
[2]
  % Cell Death: 12
[3]
  % Cell Death: -2
[5]
  % Cell Death: 23
[6]
  % Cell Death: -6
[7]
  % Cell Death: -23
[8]
  inhibition: 2%

## C=CC12CCN(CC1)C(C(O)c1ccnc3ccc(OC)cc13)C2.Cl (stereo unspecified)
[1]
  % Cell Death: -12
[2]
  % Cell Death: 27
[3]
  % Cell Death: -24
[5]
  % Cell Death: -14
[6]
  % Cell Death: 27
[7]
  % Cell Death: -23
[8]
  inhibition: -2%

## COc1ccc(Nc2nc(NCc3ccccc3)c3ccccc3n2)cc1
[1]
  % Cell Death: 21
[2]
  % Cell Death: 28
[3]
  % Cell Death: -24
[5]
  % Cell Death: 18
[6]
  % Cell Death: 41
[7]
  % Cell Death: -30
[8]
  inhibition: 2%

## Cc1ccc(-c2nc3ccccc3o2)cc1NCc1cc(Cc2ccccc2)ccc1O
[1]
  % Cell Death: -7
[2]
  % Cell Death: 15
[3]
  % Cell Death: 52
[5]
  % Cell Death: 27
[6]
  % Cell Death: 13
[7]
  % Cell Death: -11
[8]
  inhibition: 8%

## CCOC(=O)C1=C(C)N=c2sc(=Cc3cc(Cl)ccc3O)c(=O)n2C1c1ccc(OC)cc1 (stereo unspecified)
[1]
  % Cell Death: 10
[2]
  % Cell Death: 15
[3]
  % Cell Death: -46
[5]
  % Cell Death: -27
[6]
  % Cell Death: 11
[7]
  % Cell Death: -6
[8]
  inhibition: 1%

## CN1CCN(c2ccc(Nc3c4ccccc4nc4ccccc34)cc2)CC1
[1]
  % Cell Death: 22
[2]
  % Cell Death: 22
[3]
  % Cell Death: -32
[5]
  % Cell Death: 11
[6]
  % Cell Death: 19
[7]
  % Cell Death: -14
[8]
  inhibition: 6%
